Patent publication US9260391B2, “Hypoglycemic dihydropyridones” (The Trustees of Columbia University in the City of New York, priority 2008, dated 2016)
Entries after “also recorded” stand apart in the source; their conditions may differ.

Tests used:
[1] = test system: Lewis rats; assay: IPGTT of analogs HG-1 to HG-11, compounds given orally (FIG. 15); assay type: in vivo, rat; details: 2 mg/kg orally; FIG. 15
Procedure: FIG. 15 is a bar graph showing the results of testing various analogs HG-1 to HG-11 in IPGTT glucose tolerance tests in rats. Results for TBZ, emetine, and olanzapine are also shown. Lewis rats fasted for 6 hours were administered the compounds orally (30 min, 2 mg/kg) followed by intraperitoneal glucose injection (0 min, […]), and plasma glucose levels were monitored for 120 mins. Results are presented as AUC percentage of the vehicle. Error bars indicate SEM (n=5).
Racemic HG-2 and its diastereoisomer HG-1 were evaluated for their ability to improve glucose tolerance by performing intraperitoneal glucose tolerance tests (IPGTT) in rats. IPGTT testing is described above. See also Murthy, R., et al., Eur. J. Nucl. Med. Mol. Imaging, 2008, 35(4), 790-797.

[2] = test system: Lewis rats; assay: Intraperitoneal glucose tolerance test (IPGTT), compounds given i.v.; assay type: in vivo, rat; details: for AUC Blood Glucose IPGTT: 2 mg/kg (2.0 μg/gbw) i.v.; for blood glucose levels around sixty minutes following glucose challenge: i.v. injection at 2 mg/kg body weight; for area under the curve from glucose tolerance tests: each series a separate experiment
Procedure: All animal studies were reviewed and approved by the Institutional Animal Care and Use Committee (IACUC) at Columbia University's Medical School. All experiments were performed in accordance with the IACUC approved procedures. Normal male Lewis rats (100-400 grams) were obtained from Taconic (Taconic Inc., Germantown, N.Y.) and were housed under conditions of controlled humidity (55±5%), temperature (23±1° C.), and lighting (light on: 06.00-18.00 hours) with free access to standard laboratory rat chow and water. Rats were handled daily to minimize nonspecific stress for more than 7 days before the experiments began. In most experiments, it was necessary to measure blood glucose in fasting animals. For these groups, food was removed at the beginning of the light cycle, 6 hours before glucose levels were measured. Diabetes mellitus was induced by intraperitoneal injection of streptozotocin (Sigma Chemical Co., St. Louis, Mo.) (25 to 50 mg/kg) to animals (100 to 150 grams) that had been fasted 4 hours to enhance the effectiveness of STZ treatment.
The STZ solution was prepared fresh by dissolving it in 0.1 M citrate buffer (pH 5.5) and terminally sterile filtered. Control Lewis age and weight matched rats received a 0.5 ml/kg citrate vehicle alone via intraperitoneal injection. Sixty minutes prior to intraperitoneal glucose tolerance testing (IPGTT), anesthesia of male Lewis rats was induced with isoflurane (3-4% in oxygen) and maintained with 1-2% isoflurane in oxygen. Anaesthetized rats were administered TBZ and other indicated compounds at the indicated dose by intravenous (i.v.) injection using the penile vein. TBZ was dissolved in neat sterile dimethylsulfoxide (DMSO) and diluted (always more than 10 fold) in sterile saline. Rats received injections of vehicle alone (10% DMSO in saline) or reserpine (in saline). Animals recovered fully before receiving IPGTT.
Blood samples were collected from a superficial blood vessel in the tails of the rats following 6 hours of fasting between 12:00 noon and 2:00 p.m. The fasting blood glucose (BG) levels of the rats were measured using an Accu-Check blood glucose monitoring system (Roche Diagnostics, Sommerville, N.J.). Intraperitoneal glucose tolerance tests (IPGTT) were performed in 6 hour fasting un-anaesthetized animals. Briefly, after baseline BG measurements, animals received an intraperitoneal (i.p.) injection of 1 gram glucose/kilogram body weight. To minimize stress during the procedure, rats were handled by the same operator during acclimatization and later during weighing and IPGTT. Blood samples (approximately 30 μl) were collected at baseline and then again 15, 30, 60, 90, and 120 minutes following i.p. glucose administration. BG concentrations were measured immediately on these samples and the remainder processed.
Plasma was immediately separated by centrifugation at 3000×g for 15 minutes and then stored at −20° C. until analysis. Insulin and glucagon concentration measurements in rat plasma were performed by ELISA as per the manufacturer's instructions using kits from Linco Research Inc. (St. Charles, Mo.) and Alpco Diagnostics (Salem, N.H.), respectively. To validate the test, saline injections were performed by the same method. […] The area under the IPGTT glucose concentration×time curve (AUCIPGTT) was calculated by the trapezoidal rule. The area under the insulin or glucagon concentration×time curve (AUC INS or AUC GCG) was calculated in a similar manner.
Anaesthetized rats were administered TBZ, THB, butamol, reserpine, emetine, or HG-6 at a dose of approximately 2-3 mg/kg body weight by intravenous (i.v.) injection using the penile vein. TBZ, THB, butamol, reserpine, emetine, and HG-6 were each separately dissolved in neat sterile dimethylsulfoxide (DMSO) and diluted (always more than 10 fold) in sterile saline. Rats received injections of vehicle alone (10% DMSO in saline) or reserpine (in saline). Animals recovered fully before receiving IPGTT. […]

[3] = 2 mg/kg body weight i.v., Lewis rats 9-11 weeks old, vs vehicle (DMSO)
[4] = single dose 2-3 mg/kg body weight i.v., FIG. 12

SMILES | hypoglycemic activity in IPGTT compared with TBZ / HG-3 [1] | AUC Blood Glucose IPGTT [2] | blood glucose excursion during IPGTT [2, 3] | blood glucose levels around sixty minutes following glucose challenge [2] | also measured
COC1=CC(=O)N2CCc3cc(OC)c(OC)cc3C2C1 (centres unmarked) [HG-10] | active but less potent |  |  |  | 
COc1ccc(-c2cc(OCC(C)C)cc(=O)[nH]2)cc1OC [compound 17] | loss of the improved activity |  |  |  | 
CC[C@H]1CN2CCc3cc(OC)c(OC)cc3[C@@H]2C[C@@H]1C[C@H]1NCCc2cc(OC)c(OC)cc21 [emetine] |  | smaller area under the curve; also recorded: lower than that for vehicle and butamol treated animals | reduce the blood glucose excursion | returned to control or near normal levels | blood glucose excursion during IPGTT [2, 4]: consistently reduced the blood glucose excursion; area under the curve from glucose tolerance tests [2, 4]: consistently suppressed the area under the curve; area under the curve from glucose tolerance tests ([2]; single dose 2-3 mg/kg body weight i.v., FIG. 12, listed as emitine): depress the area under the curve
COC(=O)[C@H]1[C@H]2C[C@@H]3c4[nH]c5cc(OC)ccc5c4CCN3C[C@H]2C[C@@H](OC(=O)c2cc(OC)c(OC)c(OC)c2)[C@@H]1OC [reserpine] |  | smaller area under the curve | reduce the blood glucose excursion | returned to control or near normal levels | blood glucose and AUC IPGTT relative to untreated controls ([2]; reserpine single concentration 25 μg/gbm, data not shown): persistent hyperglycemia and larger AUC IPGTT
COc1cc2c(cc1OC)C1CC(OCC(C)C)=CC(=O)N1CC2 (centres unmarked) [HG-8] | active but less potent |  |  |  | 
COc1ccc(C2CC(=O)CC(=O)N2)cc1OC (centres unmarked) [HG-5] | loss of the improved activity |  |  |  | 
COC1=CC(=O)OC(c2ccc(OC)c(OC)c2)C1 (centres unmarked) [HG-9] | loss of the improved activity |  |  |  | 
COc1ccc(C2CC(OCC(C)C)=CC(=O)O2)cc1OC (centres unmarked) [HG-7] | loss of the improved activity |  |  |  | 
COc1cc2c(cc1OC)C1CC(N)C(CC(C)C)CN1CC2 (centres unmarked) [HG-6, 3-isobutyl-9,10-dimethoxy-2,3,4,6,7,11b-hexahydro-1H-pyrido[2,1-a]isoquinolin-2-amine] |  |  |  |  | blood glucose excursion during IPGTT [2, 4]: consistently reduced the blood glucose excursion; area under the curve from glucose tolerance tests [2, 4]: consistently suppressed the area under the curve; also recorded: depress the area under the curve
COc1ccc2c(c1OC)CN1CCc3cc4c(cc3C1C2)OCO4 (centres unmarked) [THB, tetrahydroberberine] |  | smaller area under the curve; also recorded: lower than that for vehicle and butamol treated animals | reduce the blood glucose excursion | returned to control or near normal levels | 
COc1ccc([C@@H]2C[C@H](O)[C@@H](CC(C)C)CN2)cc1OC [HG-1] | less potent than TBZ |  |  |  | 
COc1ccc(C2CC(O)C(CC(C)C)CN2)cc1OC (centres unmarked) [HG-2] | less potent than TBZ |  |  |  | 
CC(C)(C)NCC(O)c1ccc(O)c(CO)c1 (centres unmarked) [butamol] |  | smaller area under the curve | did not reduce the blood glucose excursion; also recorded: does not reduce the blood glucose excursion | returned to control or near normal levels | 
